Patent US20200087340A1, “LIF/LIFR ANTAGONIST IN ONCOLOGY AND NONMALIGNANT DISEASES” (Evestra, Inc., priority 2018, published 2020)

Columns and labels:
Format in all cases: cell-based, human
[1] = system: UO-31; experiment: NCI-60 screening, Renal Cancer
[2] = system: MDA-MB-468; experiment: NCI-60 screening, Breast Cancer
Description: EC 330 was also tested using the NCI-60 Screening Methodology. The human tumor cell lines of the cancer screening panel are grown in RPMI 1640 medium containing 5% fetal bovine serum and 2 mM L-glutamine. For a typical screening experiment, cells are inoculated into 96 well microtiter plates in 100 μL at plating densities ranging from 5,000 to 40,000 cells/well depending on the doubling time of individual cell lines. After cell inoculation, the microtiter plates are incubated at 37° C., 5% CO2, 95% air and 100% relative humidity for 24 h prior to addition of experimental drugs. […]
Following drug addition, the plates are incubated for an additional 48 h at 37° C., 5% CO2, 95% air, and 100% relative humidity. […] Bound stain is subsequently solubilized with 10 mM trizma base, and the absorbance is read on an automated plate reader at a wavelength of 515 nm. […] Using the seven absorbance measurements [time zero, (Tz), control growth, (C), and test growth in the presence of drug at the five concentration levels (Ti)], the percentage growth is calculated at each of the drug concentrations levels. Percentage growth inhibition is calculated as: […]
Three dose response parameters are calculated for each experimental agent. […] The drug concentration resulting in total growth inhibition (TGI) is calculated from Ti=Tz. […]

[3] = system: BT-549; experiment: NCI-60 screening, Breast Cancer
[4] = system: SF-295; experiment: NCI-60 screening, CNS Cancer
[5] = system: EKVX; experiment: NCI-60 screening, Non-Small Cell Lung Cancer

Q: What does the source list for C#CC(F)(F)[C@]1(O)CCC2C3CCC4=CC(=O)CCC4=C3C(c3ccc(C4CC4)cc3)C[C@@]21C (stereo partly drawn) [EC330, 17α-(1,1-difluoro-2-propyn-1-yl)-17β-hydroxy-11β-[4-p-(cyclopropyl)phenyl]estra-4,9-dien-3-one]?
A: TGI (log10TGI) [1]: <−8.00; TGI (log10TGI) [2]: −6.09; TGI (log10TGI) [3]: −5.30; TGI (log10TGI) [4]: <−8.00; TGI (log10TGI) [5]: <−8.00
